{"source": "patent US20230241093A1", "about": "“TARGETING ADISPSIN FOR NONALCOHOLIC STEATOHEPATITIS (NASH)- INDUCED LIVER FIBROSIS” (The Trustees of Columbia University in the City of New York, priority 2020, published 2023)", "test_system": "hepatic stellate cells (HSC)", "assay": "Gene expression in hepatic stellate cells after treatment with recombinant C3a", "format": "cell-based", "conditions": "recombinant C3a vs control (vehicle alone), FIG. 3B", "protocol": "FIG. 3. Adipsin/C3a effects on liver fibrosis. A. Complement C3 cleavage products as assessed by Western blot in conditioned medium from hepatocytes with or without Adipsin expression. B. Gene expression in hepatic stellate cells (HSC) after treatment with vehicle or recombinant C3a.\nThe effects of Adipsin/C3a on liver fibrosis was analyzed."}
{"substance": "recombinant C3a: recombinant complement C3 cleavage product C3a, used to treat hepatic stellate cells", "values": [{"measurement": "Acta2 gene expression in hepatic stellate cells", "value": "dose dependent increase"}, {"measurement": "Collal gene expression in hepatic stellate cells", "value": "dose dependent increase"}]}
